Measurements from patent US9340590B2 (priority 2011, dated 2016).
Positions of bridges follow the written chain, without caps; N, C: chain ends. Non-standard residues stand in square brackets, D forms with d. Residues, ends and D or L forms follow the SMILES beside them. Phe(3,4-(OMe)2) = COc1ccc(C[C@H](N)C(=O)O)cc1OC; Lys(Me2) = CN(C)CCCC[C@H](N)C(=O)O

Tests used:
hNav1.5 = hNav1.5 (Homo sapiens, UniProt Q14524); assay: cell-based
hNav1.7 = hNav1.7 (Homo sapiens, UniProt Q15858); assay: cell-based; settings: Nav1.7 Use IC50
hNav1.7, sequence (Q15858 whole entry, looked up): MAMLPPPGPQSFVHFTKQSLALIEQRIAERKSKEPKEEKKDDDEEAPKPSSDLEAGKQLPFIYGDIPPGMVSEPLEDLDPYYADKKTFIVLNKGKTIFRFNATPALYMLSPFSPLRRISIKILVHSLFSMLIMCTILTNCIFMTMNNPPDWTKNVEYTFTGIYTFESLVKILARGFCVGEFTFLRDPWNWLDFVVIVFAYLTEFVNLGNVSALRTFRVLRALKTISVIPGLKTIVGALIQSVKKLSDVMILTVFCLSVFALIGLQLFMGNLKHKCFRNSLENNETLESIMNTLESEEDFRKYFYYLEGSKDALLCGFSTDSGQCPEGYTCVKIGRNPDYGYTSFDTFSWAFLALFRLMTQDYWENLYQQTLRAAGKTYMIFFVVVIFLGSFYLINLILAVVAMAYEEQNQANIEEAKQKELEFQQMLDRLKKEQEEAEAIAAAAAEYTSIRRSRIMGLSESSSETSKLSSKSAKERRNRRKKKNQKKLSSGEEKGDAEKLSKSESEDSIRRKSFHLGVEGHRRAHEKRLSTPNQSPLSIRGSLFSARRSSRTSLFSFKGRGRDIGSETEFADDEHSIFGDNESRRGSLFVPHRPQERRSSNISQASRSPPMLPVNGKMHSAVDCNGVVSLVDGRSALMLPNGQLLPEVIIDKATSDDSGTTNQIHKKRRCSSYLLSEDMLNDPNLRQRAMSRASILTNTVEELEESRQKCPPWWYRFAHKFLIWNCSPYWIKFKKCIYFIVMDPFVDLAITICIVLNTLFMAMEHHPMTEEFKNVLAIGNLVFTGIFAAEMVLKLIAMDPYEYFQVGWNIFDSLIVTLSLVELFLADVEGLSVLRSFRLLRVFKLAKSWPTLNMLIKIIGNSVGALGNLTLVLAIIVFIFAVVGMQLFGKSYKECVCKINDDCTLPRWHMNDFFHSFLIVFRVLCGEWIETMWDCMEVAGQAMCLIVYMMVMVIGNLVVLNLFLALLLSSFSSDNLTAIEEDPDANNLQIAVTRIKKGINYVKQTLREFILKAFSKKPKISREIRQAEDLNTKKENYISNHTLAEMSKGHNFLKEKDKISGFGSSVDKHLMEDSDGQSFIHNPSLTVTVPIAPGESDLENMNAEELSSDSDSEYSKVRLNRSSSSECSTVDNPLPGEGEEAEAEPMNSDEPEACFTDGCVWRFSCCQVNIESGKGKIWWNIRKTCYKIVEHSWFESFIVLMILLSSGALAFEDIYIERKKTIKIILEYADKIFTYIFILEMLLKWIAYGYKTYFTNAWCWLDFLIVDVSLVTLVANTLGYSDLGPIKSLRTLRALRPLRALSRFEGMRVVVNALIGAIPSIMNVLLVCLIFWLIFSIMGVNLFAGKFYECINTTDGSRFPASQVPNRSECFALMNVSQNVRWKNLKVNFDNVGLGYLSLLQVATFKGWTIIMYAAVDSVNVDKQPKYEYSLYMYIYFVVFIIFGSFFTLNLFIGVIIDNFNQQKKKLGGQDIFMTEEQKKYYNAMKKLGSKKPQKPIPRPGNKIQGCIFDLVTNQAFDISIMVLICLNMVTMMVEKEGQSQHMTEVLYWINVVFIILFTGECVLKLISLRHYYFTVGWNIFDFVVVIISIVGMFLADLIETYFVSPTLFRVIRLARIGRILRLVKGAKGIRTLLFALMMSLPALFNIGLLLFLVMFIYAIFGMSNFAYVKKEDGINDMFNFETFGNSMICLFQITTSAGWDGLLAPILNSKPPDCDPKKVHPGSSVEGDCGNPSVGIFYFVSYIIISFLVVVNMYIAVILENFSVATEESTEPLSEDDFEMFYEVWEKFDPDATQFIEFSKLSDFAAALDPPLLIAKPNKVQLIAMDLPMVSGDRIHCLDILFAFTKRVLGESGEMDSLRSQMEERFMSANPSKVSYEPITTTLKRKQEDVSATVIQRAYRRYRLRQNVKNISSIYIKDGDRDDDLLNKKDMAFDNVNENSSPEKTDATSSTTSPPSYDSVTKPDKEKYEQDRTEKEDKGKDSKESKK

hNav1.5, sequence (Q14524 whole entry, looked up): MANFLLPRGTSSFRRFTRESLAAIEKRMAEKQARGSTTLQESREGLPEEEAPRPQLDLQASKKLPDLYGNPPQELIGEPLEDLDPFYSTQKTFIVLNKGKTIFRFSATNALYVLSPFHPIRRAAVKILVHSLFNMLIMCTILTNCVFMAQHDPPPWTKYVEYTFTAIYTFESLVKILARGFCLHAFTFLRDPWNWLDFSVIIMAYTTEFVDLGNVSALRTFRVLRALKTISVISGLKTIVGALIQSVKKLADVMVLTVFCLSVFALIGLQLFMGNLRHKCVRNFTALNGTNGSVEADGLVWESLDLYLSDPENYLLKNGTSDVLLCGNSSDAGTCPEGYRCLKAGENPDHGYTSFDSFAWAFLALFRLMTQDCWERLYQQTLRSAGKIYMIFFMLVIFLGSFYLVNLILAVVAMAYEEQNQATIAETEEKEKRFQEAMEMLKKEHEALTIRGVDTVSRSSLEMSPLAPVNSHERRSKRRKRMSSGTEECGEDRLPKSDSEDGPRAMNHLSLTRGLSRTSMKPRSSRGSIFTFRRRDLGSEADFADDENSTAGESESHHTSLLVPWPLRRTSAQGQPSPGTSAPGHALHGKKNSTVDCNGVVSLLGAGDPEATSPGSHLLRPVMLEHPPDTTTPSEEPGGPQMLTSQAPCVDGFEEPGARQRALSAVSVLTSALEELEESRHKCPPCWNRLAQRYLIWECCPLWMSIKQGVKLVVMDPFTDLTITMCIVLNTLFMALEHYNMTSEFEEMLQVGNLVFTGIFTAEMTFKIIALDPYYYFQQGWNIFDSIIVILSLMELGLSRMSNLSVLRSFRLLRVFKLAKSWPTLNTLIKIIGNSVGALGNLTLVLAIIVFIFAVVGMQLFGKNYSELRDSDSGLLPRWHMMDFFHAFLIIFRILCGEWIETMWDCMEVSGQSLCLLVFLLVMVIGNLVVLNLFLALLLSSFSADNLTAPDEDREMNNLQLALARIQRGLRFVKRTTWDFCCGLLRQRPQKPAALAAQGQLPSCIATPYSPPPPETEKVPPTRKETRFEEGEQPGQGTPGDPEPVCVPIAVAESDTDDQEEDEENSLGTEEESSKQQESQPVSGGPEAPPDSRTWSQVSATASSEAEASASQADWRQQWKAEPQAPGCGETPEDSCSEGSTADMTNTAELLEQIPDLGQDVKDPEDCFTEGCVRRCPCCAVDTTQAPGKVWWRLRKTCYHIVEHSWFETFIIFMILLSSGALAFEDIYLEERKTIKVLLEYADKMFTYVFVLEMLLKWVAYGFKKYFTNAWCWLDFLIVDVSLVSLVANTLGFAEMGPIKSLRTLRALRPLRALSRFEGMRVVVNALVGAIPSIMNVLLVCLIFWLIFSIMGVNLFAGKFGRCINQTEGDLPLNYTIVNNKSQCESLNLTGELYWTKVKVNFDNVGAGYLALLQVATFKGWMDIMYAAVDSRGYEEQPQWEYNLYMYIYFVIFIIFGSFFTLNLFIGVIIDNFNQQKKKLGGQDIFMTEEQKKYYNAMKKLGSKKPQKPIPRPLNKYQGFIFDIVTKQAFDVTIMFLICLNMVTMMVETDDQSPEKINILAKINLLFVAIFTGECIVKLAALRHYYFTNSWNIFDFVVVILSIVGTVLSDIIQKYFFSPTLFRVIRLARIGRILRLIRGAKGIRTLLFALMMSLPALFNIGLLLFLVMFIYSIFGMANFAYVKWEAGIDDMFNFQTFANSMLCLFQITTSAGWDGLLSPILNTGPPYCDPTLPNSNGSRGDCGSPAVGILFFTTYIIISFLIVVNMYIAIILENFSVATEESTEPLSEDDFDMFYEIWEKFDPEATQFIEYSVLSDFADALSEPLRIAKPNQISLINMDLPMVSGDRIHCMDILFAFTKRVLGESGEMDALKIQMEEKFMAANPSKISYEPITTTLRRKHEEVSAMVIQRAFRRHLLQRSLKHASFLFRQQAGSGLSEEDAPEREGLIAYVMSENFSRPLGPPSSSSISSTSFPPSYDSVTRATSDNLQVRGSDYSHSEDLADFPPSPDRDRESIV

CC[C@H](C)[C@@H]1NC(=O)[C@@H]2CSSC[C@@H]3NC(=O)[C@H](C(C)C)NC(=O)[C@H](CC(C)C)NC(=O)[C@H](CC(N)=O)NC(=O)[C@@H]4CCCN4C(=O)[C@H](CCCNC(N)=O)NC(=O)[C@H](CSSC[C@H](NC(=O)[C@@H](N)CC(=O)O)C(=O)N[C@@H](CC(C)C)C(=O)NCC(=O)N[C@@H](Cc4ccccc4)C(=O)N[C@@H](CCSC)C(=O)N[C@@H](CCCNC(=N)N)C(=O)N[C@@H](CCCCN)C(=O)N2)NC(=O)[C@H](CSSC[C@@H](C(=O)N[C@@H](CCCCN)C(=O)N[C@@H](Cc2ccc(O)cc2)C(=O)N[C@H](C(=O)N[C@@H](Cc2ccccc2)C(N)=O)C(C)C)NC(=O)[C@H](Cc2c[nH]c4ccccc24)NC(=O)[C@H](CCCCN)NC(=O)[C@H](Cc2cnc[nH]2)NC(=O)[C@H]([C@@H](C)O)NC(=O)[C@H](CCCNC(=N)N)NC(=O)[C@H](CO)NC3=O)NC(=O)[C@H](CCCCN)NC(=O)[C@H](CC(=O)O)NC(=O)[C@H](CC(N)=O)NC(=O)[C@H](CC(=O)O)NC(=O)[C@@H]2CCCN2C1=O [[Cit18]GpTx-1(1-34)]
IC50 (hNav1.5): 10000 nM | IC50 (hNav1.7): 2 nM

CC[C@H](C)[C@@H]1NC(=O)[C@@H]2CSSC[C@@H]3NC(=O)[C@H](C(C)C)NC(=O)[C@H](CC(C)C)NC(=O)[C@H](CC(N)=O)NC(=O)[C@@H]4CCCN4C(=O)[C@H](CCCNC(=N)N)NC(=O)[C@H](CSSC[C@H](NC(=O)[C@@H](N)CC(=O)O)C(=O)N[C@@H](CC(C)C)C(=O)NCC(=O)N[C@@H](Cc4ccccc4)C(=O)N[C@@H](CCSC)C(=O)N[C@@H](CCCNC(=N)N)C(=O)N[C@@H](CCCCN)C(=O)N2)NC(=O)[C@H](CSSC[C@@H](C(=O)N[C@@H](CCCCN)C(=O)N[C@@H](Cc2ccc(O)cc2)C(=O)N[C@H](C(=O)N[C@@H](Cc2ccccc2)C(N)=O)C(C)C)NC(=O)[C@H](Cc2c[nH]c4ccccc24)NC(=O)[C@H](CCCCN)NC(=O)[C@H](Cc2c[nH]cn2)NC(=O)[C@H]([C@@H](C)O)NC(=O)[C@H](CCCNC(N)=O)NC(=O)[C@H](CO)NC3=O)NC(=O)[C@H](CCCCN)NC(=O)[C@H](CC(=O)O)NC(=O)[C@H](CC(N)=O)NC(=O)[C@H](CC(=O)O)NC(=O)[C@@H]2CCCN2C1=O [[Cit25]GpTx-1(1-34)]
IC50 (hNav1.5): > 10000 nM | IC50 (hNav1.7): 4 nM

CC[C@H](C)[C@@H]1NC(=O)[C@@H]2CSSC[C@@H]3NC(=O)[C@H](C(C)C)NC(=O)[C@H](CC(C)C)NC(=O)[C@H](CC(N)=O)NC(=O)[C@@H]4CCCN4C(=O)[C@H](CCCNC(=N)N)NC(=O)[C@H](CSSC[C@H](NC(=O)[C@@H](N)CC(=O)O)C(=O)N[C@@H](CC(C)C)C(=O)NCC(=O)N[C@@H](Cc4ccc(OC)c(OC)c4)C(=O)N[C@@H](Cc4ccccc4)C(=O)N[C@@H](CCCNC(=N)N)C(=O)N[C@@H](CCCCN)C(=O)N2)NC(=O)[C@H](CSSC[C@@H](C(=O)N[C@@H](CCCCN)C(=O)N[C@@H](Cc2ccc(O)cc2)C(=O)N[C@H](C(=O)N[C@@H](Cc2ccccc2)C(N)=O)C(C)C)NC(=O)[C@H](Cc2c[nH]c4ccccc24)NC(=O)[C@H](CCCCN)NC(=O)[C@H](Cc2c[nH]cn2)NC(=O)[C@H]([C@@H](C)O)NC(=O)[C@H](CCCNC(=N)N)NC(=O)[C@H](CO)NC3=O)NC(=O)[C@H](CCCCN)NC(=O)[C@H](CC(=O)O)NC(=O)[C@H](CC(N)=O)NC(=O)[C@H](CC(=O)O)NC(=O)[C@@H]2CCCN2C1=O [[DiMeO-F5;Phe6]GpTx-1(1-34)] (H-DCLG[Phe(3,4-(OMe)2)]FRKCIPDNDKCCRPNLVCSRTHKWCKYVF-NH2; disulfide 2-17, 9-23, 16-30)
IC50 (hNav1.5): > 10000 nM | IC50 (hNav1.7): 33 nM

CC[C@H](C)[C@@H]1NC(=O)[C@@H]2CSSC[C@@H]3NC(=O)[C@H](C(C)C)NC(=O)[C@H](CC(C)C)NC(=O)[C@H](CC(N)=O)NC(=O)[C@@H]4CCCN4C(=O)[C@H](CCCNC(=N)N)NC(=O)[C@H](CSSC[C@H](NC(=O)[C@@H](N)CC(=O)O)C(=O)N[C@@H](CC(C)C)C(=O)NCC(=O)N[C@@H](Cc4ccccc4)C(=O)N[C@@H](CCSC)C(=O)N[C@@H](CCCNC(=N)N)C(=O)N[C@@H](CCCCN)C(=O)N2)NC(=O)[C@H](CSSC[C@@H](C(=O)N[C@@H](CCCCN)C(=O)N[C@@H](Cc2ccc(O)cc2)C(=O)N[C@H](C(=O)N[C@@H](Cc2ccccc2)C(N)=O)C(C)C)NC(=O)[C@H](Cc2c[nH]c4ccccc24)NC(=O)[C@H](CCCCN)NC(=O)[C@H](Cc2c[nH]cn2)NC(=O)[C@H]([C@@H](C)O)NC(=O)[C@H](CCCNC(=N)N)NC(=O)[C@H](CO)NC3=O)NC(=O)[C@H](CCC(=O)O)NC(=O)[C@H](CC(=O)O)NC(=O)[C@H](CC(N)=O)NC(=O)[C@H](CC(=O)O)NC(=O)[C@@H]2CCCN2C1=O [[Glu15]GpTx-1(1-34)] (H-DCLGFMRKCIPDNDECCRPNLVCSRTHKWCKYVF-NH2; disulfide 2-17, 9-23, 16-30)
IC50 (hNav1.5): 10000 nM | IC50 (hNav1.7): 20 nM

CC[C@H](C)[C@@H]1NC(=O)[C@@H]2CSSC[C@@H]3NC(=O)[C@H](C(C)C)NC(=O)[C@H](CC(C)C)NC(=O)[C@H](CC(N)=O)NC(=O)[C@@H]4CCCN4C(=O)[C@H](CCCNC(=N)N)NC(=O)[C@H](CSSC[C@H](NC(=O)[C@@H](N)CC(=O)O)C(=O)N[C@@H](CC(C)C)C(=O)NCC(=O)N[C@@H](Cc4ccccc4)C(=O)N[C@@H](CCSC)C(=O)N[C@@H](CCCNC(=N)N)C(=O)N[C@@H](CCCCN)C(=O)N2)NC(=O)[C@H](CSSC[C@@H](C(=O)N[C@@H](CCCCN)C(=O)N[C@@H](Cc2ccc(O)cc2)C(=O)N[C@H](C(=O)N[C@@H](Cc2ccccc2)C(N)=O)C(C)C)NC(=O)[C@H](Cc2c[nH]c4ccccc24)NC(=O)[C@H](CCCCN)NC(=O)[C@H](Cc2c[nH]cn2)NC(=O)[C@H]([C@@H](C)O)NC(=O)[C@H](CCC(=O)O)NC(=O)[C@H](CO)NC3=O)NC(=O)[C@H](CCCCN)NC(=O)[C@H](CC(=O)O)NC(=O)[C@H](CC(N)=O)NC(=O)[C@H](CC(=O)O)NC(=O)[C@@H]2CCCN2C1=O [[Glu25]GpTx-1(1-34)] (H-DCLGFMRKCIPDNDKCCRPNLVCSETHKWCKYVF-NH2; disulfide 2-17, 9-23, 16-30)
IC50 (hNav1.5): > 10000 nM | IC50 (hNav1.7): 28 nM

CC[C@H](C)[C@@H]1NC(=O)[C@@H]2CSSC[C@@H]3NC(=O)[C@H](C(C)C)NC(=O)[C@H](CC(C)C)NC(=O)[C@H](CC(N)=O)NC(=O)[C@@H]4CCCN4C(=O)[C@H](CCCNC(=N)N)NC(=O)[C@H](CSSC[C@H](NC(=O)[C@@H](N)CC(=O)O)C(=O)N[C@@H](CC(C)C)C(=O)NCC(=O)N[C@@H](Cc4ccccc4)C(=O)N[C@@H](CCSC)C(=O)N[C@@H](CCCNC(=N)N)C(=O)N[C@@H](CCCCN)C(=O)N2)NC(=O)[C@H](CSSC[C@@H](C(=O)N[C@@H](CCCCN)C(=O)N[C@@H](Cc2ccc(O)cc2)C(=O)N[C@H](C(=O)N[C@@H](Cc2ccccc2)C(N)=O)C(C)C)NC(=O)[C@H](Cc2c[nH]c4ccccc24)NC(=O)[C@H](CCCCN)NC(=O)[C@H](Cc2cnc[nH]2)NC(=O)[C@H](Cc2cnc[nH]2)NC(=O)[C@H](CCCNC(=N)N)NC(=O)[C@H](CO)NC3=O)NC(=O)[C@H](CCCCN)NC(=O)[C@H](CC(=O)O)NC(=O)[C@H](CC(N)=O)NC(=O)[C@H](CC(=O)O)NC(=O)[C@@H]2CCCN2C1=O [[His26]GpTx-1(1-34)] (H-DCLGFMRKCIPDNDKCCRPNLVCSRHHKWCKYVF-NH2; disulfide 2-17, 9-23, 16-30)
IC50 (hNav1.5): 4950 nM | IC50 (hNav1.7): 3 nM

CC[C@H](C)[C@@H]1NC(=O)[C@@H]2CSSC[C@@H]3NC(=O)[C@H](C(C)C)NC(=O)[C@H](CC(C)C)NC(=O)[C@H](CC(N)=O)NC(=O)[C@@H]4CCCN4C(=O)[C@H](CCCNC(=N)N)NC(=O)[C@H](CSSC[C@H](NC(=O)[C@@H](N)CC(=O)O)C(=O)N[C@@H](CC(C)C)C(=O)NCC(=O)N[C@@H](Cc4ccccc4)C(=O)N[C@@H](CCSC)C(=O)N[C@@H](CCCNC(=N)N)C(=O)N[C@@H](CCCCN)C(=O)N2)NC(=O)[C@H](CSSC[C@@H](C(=O)N[C@@H](CCCCN)C(=O)N[C@@H](Cc2ccc(O)cc2)C(=O)N[C@H](C(=O)N[C@@H](Cc2ccccc2)C(N)=O)C(C)C)NC(=O)[C@H](Cc2c[nH]c4ccccc24)NC(=O)[C@H](CCCCN)NC(=O)[C@H](Cc2c[nH]cn2)NC(=O)[C@H]([C@@H](C)O)NC(=O)[C@H](CCCCN(C)C)NC(=O)[C@H](CO)NC3=O)NC(=O)[C@H](CCCCN)NC(=O)[C@H](CC(=O)O)NC(=O)[C@H](CC(N)=O)NC(=O)[C@H](CC(=O)O)NC(=O)[C@@H]2CCCN2C1=O [[K(Me2)25]GpTx-1(1-34)] (H-DCLGFMRKCIPDNDKCCRPNLVCS[Lys(Me2)]THKWCKYVF-NH2; disulfide 2-17, 9-23, 16-30)
IC50 (hNav1.5): 13300 nM | IC50 (hNav1.7): 8 nM

CC[C@H](C)[C@@H]1NC(=O)[C@@H]2CSSC[C@@H]3NC(=O)[C@H](C(C)C)NC(=O)[C@H](CC(C)C)NC(=O)[C@H](CC(N)=O)NC(=O)[C@@H]4CCCN4C(=O)[C@H](CCCNC(=N)N)NC(=O)[C@H](CSSC[C@H](NC(=O)[C@@H](N)CC(=O)O)C(=O)N[C@@H](CC(C)C)C(=O)NCC(=O)N[C@@H](CC(C)C)C(=O)N[C@@H](CC(C)C)C(=O)N[C@@H](CCCNC(=N)N)C(=O)N[C@@H](CCCCN)C(=O)N2)NC(=O)[C@H](CSSC[C@@H](C(=O)N[C@@H](CCCCN)C(=O)N[C@@H](Cc2ccc(O)cc2)C(=O)N[C@H](C(=O)N[C@@H](Cc2ccccc2)C(N)=O)C(C)C)NC(=O)[C@H](Cc2c[nH]c4ccccc24)NC(=O)[C@H](CCCCN)NC(=O)[C@H](Cc2c[nH]cn2)NC(=O)[C@H]([C@@H](C)O)NC(=O)[C@H](CCCNC(=N)N)NC(=O)[C@H](CO)NC3=O)NC(=O)[C@H](CCCCN)NC(=O)[C@H](CC(=O)O)NC(=O)[C@H](CC(N)=O)NC(=O)[C@H](CC(=O)O)NC(=O)[C@@H]2CCCN2C1=O [[Leu5,6]GpTx-1(1-34)] (H-DCLGLLRKCIPDNDKCCRPNLVCSRTHKWCKYVF-NH2; disulfide 2-17, 9-23, 16-30)
IC50 (hNav1.5): > 10000 nM | IC50 (hNav1.7): 11 nM
